Legend:
Assay in all cases: kinobeads assay with mass spectrometry detection of kinases (kinase selectivity profile)
Assay type in all cases: binding
[1] = target: T1, kinases (kinome) (Homo sapiens, UniProt O00444); conditions: PLK4 (Other), IPI00410344
T1 construct: determined in kinobeads assays with mass spectrometry detection of kinases as described previously; endogenous in cells; host or cells: cell lysate
T1 sequence (O00444 1-970): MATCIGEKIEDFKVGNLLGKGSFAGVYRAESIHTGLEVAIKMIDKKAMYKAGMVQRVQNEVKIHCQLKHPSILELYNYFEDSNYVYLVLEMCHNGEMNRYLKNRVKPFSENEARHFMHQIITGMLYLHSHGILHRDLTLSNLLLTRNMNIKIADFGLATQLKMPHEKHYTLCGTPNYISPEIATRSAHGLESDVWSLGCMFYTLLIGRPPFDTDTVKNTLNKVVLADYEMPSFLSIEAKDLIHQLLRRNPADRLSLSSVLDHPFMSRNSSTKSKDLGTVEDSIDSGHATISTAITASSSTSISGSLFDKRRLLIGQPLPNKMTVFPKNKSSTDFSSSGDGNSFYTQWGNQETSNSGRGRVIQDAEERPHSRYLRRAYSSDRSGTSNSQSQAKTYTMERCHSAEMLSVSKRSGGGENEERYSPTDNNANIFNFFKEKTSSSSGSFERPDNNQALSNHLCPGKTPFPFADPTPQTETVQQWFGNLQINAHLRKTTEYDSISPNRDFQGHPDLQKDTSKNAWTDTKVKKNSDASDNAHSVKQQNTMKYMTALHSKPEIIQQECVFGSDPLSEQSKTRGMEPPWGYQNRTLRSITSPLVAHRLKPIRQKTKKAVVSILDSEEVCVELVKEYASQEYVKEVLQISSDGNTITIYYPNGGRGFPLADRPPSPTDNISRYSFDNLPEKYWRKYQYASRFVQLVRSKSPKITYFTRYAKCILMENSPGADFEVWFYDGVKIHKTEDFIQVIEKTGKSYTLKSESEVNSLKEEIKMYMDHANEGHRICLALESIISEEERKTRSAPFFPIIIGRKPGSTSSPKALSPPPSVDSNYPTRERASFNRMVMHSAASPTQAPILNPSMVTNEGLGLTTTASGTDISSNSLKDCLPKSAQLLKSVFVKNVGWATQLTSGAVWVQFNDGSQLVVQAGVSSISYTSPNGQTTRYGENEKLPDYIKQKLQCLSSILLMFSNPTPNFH
Text: (§1) The protein kinase complement of the human genome (the kinome) was described previously (Manning et al., 2002. Science 298(5600):1912-1934). Sequence accession numbers are defined by the International Protein Index (IPI) (Kersey et al., 2004. Proteomics 4(7):1985-1988).

[2] = target: T2, kinases (kinome) (Homo sapiens, UniProt P23458); conditions: JAK1 (TK), IPI00784013
T2 construct: determined in kinobeads assays with mass spectrometry detection of kinases as described previously; endogenous in cells; host or cells: cell lysate
Text: as §1

[3] = target: T3, kinases (kinome) (Homo sapiens, UniProt P41240); conditions: CSK (TK), IPI00013212
T3 construct: determined in kinobeads assays with mass spectrometry detection of kinases as described previously; endogenous in cells; host or cells: cell lysate
Text: as §1

[4] = target: T4, kinases (kinome) (Homo sapiens, UniProt P51955); conditions: NEK2 (Other), IPI00021331
T4 construct: determined in kinobeads assays with mass spectrometry detection of kinases as described previously; endogenous in cells; host or cells: cell lysate
T4 sequence (P51955 1-445): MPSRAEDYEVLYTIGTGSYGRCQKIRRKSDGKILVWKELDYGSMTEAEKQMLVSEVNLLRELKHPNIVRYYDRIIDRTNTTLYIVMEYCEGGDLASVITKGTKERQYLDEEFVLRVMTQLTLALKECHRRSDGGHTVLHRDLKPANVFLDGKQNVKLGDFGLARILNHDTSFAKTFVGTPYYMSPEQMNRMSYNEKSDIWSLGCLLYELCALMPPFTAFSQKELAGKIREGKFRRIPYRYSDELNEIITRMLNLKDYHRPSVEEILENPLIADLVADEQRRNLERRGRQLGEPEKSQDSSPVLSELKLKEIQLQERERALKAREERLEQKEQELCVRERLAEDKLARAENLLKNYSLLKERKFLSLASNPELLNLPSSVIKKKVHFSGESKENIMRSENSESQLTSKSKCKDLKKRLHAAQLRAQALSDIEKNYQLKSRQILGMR
Text: as §1

[5] = target: T5, kinases (kinome) (Homo sapiens, UniProt Q13131); conditions: AMPKa1 (CAMK), IPI00410287
T5 construct: determined in kinobeads assays with mass spectrometry detection of kinases as described previously; endogenous in cells; host or cells: cell lysate
Text: as §1

[6] = target: T6, kinases (kinome) (Homo sapiens, UniProt Q9HCP0); conditions: CK1g1 (CK1), IPI00791893
T6 construct: determined in kinobeads assays with mass spectrometry detection of kinases as described previously; endogenous in cells; host or cells: cell lysate
Text: as §1

[7] = target: T7, kinases (kinome) (Homo sapiens, UniProt Q9Y2K2); conditions: QSK (CAMK), IPI00657720
T7 construct: determined in kinobeads assays with mass spectrometry detection of kinases as described previously; endogenous in cells; host or cells: cell lysate
Text: as §1

[8] = target: T8, kinases (kinome) (Homo sapiens, UniProt Q9Y2U5); conditions: MAP3K2 (STE), IPI00513803
T8 construct: determined in kinobeads assays with mass spectrometry detection of kinases as described previously; endogenous in cells; host or cells: cell lysate
T8 sequence (Q9Y2U5 1-619): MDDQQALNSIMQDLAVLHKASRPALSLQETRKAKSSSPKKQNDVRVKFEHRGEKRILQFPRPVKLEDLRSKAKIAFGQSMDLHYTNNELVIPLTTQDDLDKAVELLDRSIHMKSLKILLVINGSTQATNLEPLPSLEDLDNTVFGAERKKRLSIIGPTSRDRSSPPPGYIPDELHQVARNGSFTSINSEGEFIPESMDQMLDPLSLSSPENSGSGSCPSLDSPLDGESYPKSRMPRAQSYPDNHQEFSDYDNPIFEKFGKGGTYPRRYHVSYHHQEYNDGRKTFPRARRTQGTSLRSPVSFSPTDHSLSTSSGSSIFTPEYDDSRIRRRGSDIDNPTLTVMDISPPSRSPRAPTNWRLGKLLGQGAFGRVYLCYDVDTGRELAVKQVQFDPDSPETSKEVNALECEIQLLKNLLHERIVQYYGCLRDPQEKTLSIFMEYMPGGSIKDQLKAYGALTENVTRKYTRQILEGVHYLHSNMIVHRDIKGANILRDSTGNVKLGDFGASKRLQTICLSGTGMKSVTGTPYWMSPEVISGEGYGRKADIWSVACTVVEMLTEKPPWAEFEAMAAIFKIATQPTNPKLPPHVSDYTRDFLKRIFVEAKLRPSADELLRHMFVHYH
Text: as §1

Measured: IC50

T6 sequence (Q9HCP0 whole entry): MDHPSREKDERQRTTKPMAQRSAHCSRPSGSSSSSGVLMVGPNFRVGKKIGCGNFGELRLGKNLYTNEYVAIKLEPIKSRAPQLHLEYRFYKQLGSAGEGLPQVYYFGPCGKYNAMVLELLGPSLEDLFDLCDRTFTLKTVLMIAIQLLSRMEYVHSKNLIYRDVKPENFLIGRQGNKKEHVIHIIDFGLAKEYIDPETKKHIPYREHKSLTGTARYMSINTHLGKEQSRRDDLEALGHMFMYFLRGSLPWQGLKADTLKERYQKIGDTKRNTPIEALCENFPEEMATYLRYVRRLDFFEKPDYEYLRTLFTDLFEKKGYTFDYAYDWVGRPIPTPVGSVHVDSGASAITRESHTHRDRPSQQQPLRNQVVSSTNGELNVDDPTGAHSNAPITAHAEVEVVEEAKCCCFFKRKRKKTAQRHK
T2 sequence (P23458 whole entry): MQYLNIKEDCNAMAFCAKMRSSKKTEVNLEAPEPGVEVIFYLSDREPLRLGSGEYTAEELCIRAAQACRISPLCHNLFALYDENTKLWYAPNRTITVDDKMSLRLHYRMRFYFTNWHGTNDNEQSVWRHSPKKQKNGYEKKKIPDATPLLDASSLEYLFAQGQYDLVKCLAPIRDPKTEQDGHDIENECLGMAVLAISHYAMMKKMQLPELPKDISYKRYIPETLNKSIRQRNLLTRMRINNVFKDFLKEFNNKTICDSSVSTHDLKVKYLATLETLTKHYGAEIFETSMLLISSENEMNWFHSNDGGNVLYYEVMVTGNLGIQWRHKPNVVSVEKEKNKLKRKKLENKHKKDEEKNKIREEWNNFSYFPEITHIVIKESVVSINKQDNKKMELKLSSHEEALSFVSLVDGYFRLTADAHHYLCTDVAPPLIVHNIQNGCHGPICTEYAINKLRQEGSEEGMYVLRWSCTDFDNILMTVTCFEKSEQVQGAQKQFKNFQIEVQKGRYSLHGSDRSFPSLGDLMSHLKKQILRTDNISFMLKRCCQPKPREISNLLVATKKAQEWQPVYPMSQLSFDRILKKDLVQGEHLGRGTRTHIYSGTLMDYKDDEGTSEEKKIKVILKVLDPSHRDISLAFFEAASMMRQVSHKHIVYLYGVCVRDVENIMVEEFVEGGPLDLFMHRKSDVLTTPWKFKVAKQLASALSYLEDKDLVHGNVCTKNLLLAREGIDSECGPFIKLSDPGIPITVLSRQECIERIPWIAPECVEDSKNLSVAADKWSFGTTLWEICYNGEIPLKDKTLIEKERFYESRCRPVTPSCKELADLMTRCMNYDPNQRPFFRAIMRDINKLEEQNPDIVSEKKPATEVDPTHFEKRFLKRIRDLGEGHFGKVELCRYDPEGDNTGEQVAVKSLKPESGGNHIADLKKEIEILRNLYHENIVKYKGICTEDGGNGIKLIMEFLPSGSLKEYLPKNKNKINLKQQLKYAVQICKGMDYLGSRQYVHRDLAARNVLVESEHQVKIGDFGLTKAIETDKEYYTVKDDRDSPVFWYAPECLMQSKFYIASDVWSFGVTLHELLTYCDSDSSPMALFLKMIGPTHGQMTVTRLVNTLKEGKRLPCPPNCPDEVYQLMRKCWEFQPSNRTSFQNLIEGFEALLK
T7 sequence (Q9Y2K2 whole entry): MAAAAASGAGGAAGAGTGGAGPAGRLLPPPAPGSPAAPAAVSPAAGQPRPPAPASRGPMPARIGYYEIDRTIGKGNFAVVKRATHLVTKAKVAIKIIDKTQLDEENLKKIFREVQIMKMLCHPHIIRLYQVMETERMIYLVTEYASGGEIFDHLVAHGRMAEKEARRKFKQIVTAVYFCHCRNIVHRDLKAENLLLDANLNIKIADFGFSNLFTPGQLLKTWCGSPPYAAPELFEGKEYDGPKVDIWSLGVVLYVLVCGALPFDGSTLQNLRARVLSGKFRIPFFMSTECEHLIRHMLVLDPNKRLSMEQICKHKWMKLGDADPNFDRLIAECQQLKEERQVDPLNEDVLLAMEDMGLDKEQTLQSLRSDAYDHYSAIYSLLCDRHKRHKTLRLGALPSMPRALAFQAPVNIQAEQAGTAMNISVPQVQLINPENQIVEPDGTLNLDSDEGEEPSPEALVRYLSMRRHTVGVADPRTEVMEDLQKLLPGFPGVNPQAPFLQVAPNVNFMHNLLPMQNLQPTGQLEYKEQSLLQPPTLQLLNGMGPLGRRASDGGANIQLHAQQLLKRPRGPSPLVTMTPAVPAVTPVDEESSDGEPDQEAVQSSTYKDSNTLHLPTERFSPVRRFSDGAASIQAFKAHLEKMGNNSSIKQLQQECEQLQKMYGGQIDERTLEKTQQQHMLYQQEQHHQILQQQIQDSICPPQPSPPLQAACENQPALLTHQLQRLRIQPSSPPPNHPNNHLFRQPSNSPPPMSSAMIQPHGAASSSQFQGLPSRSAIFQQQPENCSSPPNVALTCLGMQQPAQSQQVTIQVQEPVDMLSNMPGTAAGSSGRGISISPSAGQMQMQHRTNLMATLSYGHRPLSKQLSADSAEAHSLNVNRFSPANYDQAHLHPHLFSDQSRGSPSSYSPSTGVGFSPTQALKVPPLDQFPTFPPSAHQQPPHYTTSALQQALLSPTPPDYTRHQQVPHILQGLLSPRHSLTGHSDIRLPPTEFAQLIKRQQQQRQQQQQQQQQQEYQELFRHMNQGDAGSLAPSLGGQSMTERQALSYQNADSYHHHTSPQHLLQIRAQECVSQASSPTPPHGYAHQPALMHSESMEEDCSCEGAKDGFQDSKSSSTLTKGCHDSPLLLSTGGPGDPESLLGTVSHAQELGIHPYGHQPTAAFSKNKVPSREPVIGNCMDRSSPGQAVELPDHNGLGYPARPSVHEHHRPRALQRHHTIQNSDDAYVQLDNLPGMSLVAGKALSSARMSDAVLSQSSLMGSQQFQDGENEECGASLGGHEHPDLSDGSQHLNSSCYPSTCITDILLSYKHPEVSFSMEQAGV
T3 sequence (P41240 whole entry): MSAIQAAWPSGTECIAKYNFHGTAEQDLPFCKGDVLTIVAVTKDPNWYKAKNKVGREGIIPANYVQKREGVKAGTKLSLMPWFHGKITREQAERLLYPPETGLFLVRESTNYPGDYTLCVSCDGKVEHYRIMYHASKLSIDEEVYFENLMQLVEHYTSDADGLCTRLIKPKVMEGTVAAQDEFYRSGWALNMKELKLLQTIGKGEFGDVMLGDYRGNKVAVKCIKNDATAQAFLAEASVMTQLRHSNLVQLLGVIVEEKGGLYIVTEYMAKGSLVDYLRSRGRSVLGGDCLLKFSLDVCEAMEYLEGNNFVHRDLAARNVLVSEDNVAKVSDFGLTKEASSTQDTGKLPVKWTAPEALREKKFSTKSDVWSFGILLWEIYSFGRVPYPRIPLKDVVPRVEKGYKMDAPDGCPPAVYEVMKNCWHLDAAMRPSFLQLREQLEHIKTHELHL
T5 sequence (Q13131 whole entry): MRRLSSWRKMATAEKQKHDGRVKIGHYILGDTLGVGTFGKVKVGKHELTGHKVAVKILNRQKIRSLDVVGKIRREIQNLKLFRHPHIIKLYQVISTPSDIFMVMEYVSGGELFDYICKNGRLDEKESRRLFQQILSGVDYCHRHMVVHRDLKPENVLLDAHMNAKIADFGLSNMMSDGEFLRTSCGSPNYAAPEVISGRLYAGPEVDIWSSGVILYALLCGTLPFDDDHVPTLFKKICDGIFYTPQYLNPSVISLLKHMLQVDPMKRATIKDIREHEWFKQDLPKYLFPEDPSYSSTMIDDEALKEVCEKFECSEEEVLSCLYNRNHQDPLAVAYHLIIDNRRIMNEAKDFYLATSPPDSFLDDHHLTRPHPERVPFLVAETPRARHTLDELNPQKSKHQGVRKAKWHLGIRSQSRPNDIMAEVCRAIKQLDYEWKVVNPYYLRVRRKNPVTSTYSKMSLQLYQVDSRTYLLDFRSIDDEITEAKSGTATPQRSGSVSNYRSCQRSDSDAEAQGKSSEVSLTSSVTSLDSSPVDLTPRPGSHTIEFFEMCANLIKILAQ

C[C@H]1COCCN1c1nc(-c2ccc(NC(=O)NC3CC3)cc2)cc(-c2ccccc2S(C)(=O)=O)n1 [Example 4, (S)-1-cyclopropyl-3-(4-(2-(3-methylmorpholino)-6-(2-(methylsulfonyl)phenyl)pyrimidin-4-yl)phenyl)urea]
> 10 µM: all assays above

C[C@H]1COCCN1c1cc(-c2ccccc2S(C)(=O)=O)nc(-c2ccc(NC(=O)NC3CC3)cc2)n1 [Example 6, (S)-1-cyclopropyl-3-(4-(4-(3-methylmorpholino)-6-(2-(methylsulfonyl)phenyl)pyrimidin-2-yl)phenyl)urea]
> 10 µM: all assays above

CCNC(=O)Nc1ccc(-c2cc(-c3ccccc3C#N)nc(N3CCOC[C@@H]3C)n2)cc1 [Example 8, (S)-1-(4-(6-(2-cyanophenyl)-2-(3-methylmorpholino)pyrimidin-4-yl)phenyl)-3-ethylurea]
> 10 µM: all assays above

C[C@H]1COCCN1c1nc(-c2ccc(NC(=O)NC3CC3)cc2)cc(-c2cc(F)ccc2S(C)(=O)=O)n1 [Example 40, (S)-1-cyclopropyl-3-(4-(6-(5-fluoro-2-(methylsulfonyl)phenyl)-2-(3-methylmorpholino)pyrimidin-4-yl)phenyl)urea]
> 10 µM: all assays above

C[C@H]1COCCN1c1cc(-c2ccccn2)nc(-c2ccc(NC(=O)NCCO)cc2)n1 [Example 43, (S)-1-(2-hydroxyethyl)-3-(4-(4-(3-methylmorpholino)-6-(pyridin-2-yl)pyrimidin-2-yl)phenyl)urea]
> 10 µM: all assays above

C[C@H]1COCCN1c1nc(-c2ccc(NC(=O)NC3CC3)cc2)cc(-c2cccnc2S(C)(=O)=O)n1 [Example 46, (S)-1-cyclopropyl-3-(4-(2-(3-methylmorpholino)-6-(2-(methylsulfonyl)pyridin-3-yl)pyrimidin-4-yl)phenyl)urea]
> 10 µM: all assays above

C[C@H]1COCCN1c1nc(-c2ccc(NC(=O)N[C@H]3CCC[C@@H]3O)cc2)cc(-c2cc(F)ccc2S(C)(=O)=O)n1 [Example 76, 1-(4-(6-(5-fluoro-2-(methylsulfonyl)phenyl)-2-((S)-3-methylmorpholino)pyrimidin-4-yl)phenyl)-3-((1S,2S)-2-hydroxycyclopentyl)urea]
> 10 µM: all assays above
